Literature values in patent US10881750B2, “Sentinel lymph node marker capable of multi-mode imaging” (NATIONAL CANCER CENTER, priority 2010, dated 2021).

Settings: 18 breast cancer patients, clinical trials (Kitai et al., Breast Cancer 2005)

CC1(C)C(/C=C/C=C/C=C/C=C2\N(CCCCS(=O)(=O)O)c3ccc4ccccc4c3C2(C)C)=[N+](CCCCS(=O)(=O)[O-])c2ccc3ccccc3c21 [indocyanine green]
safety in clinical use: safe to use
